From DBAASP
In brackets after ≈: the same amount, converted by molar mass. Each block holds one compound with its values, some of them ahead of it.

Assays:
Test in all cases: ≥ marks a high value that may be exact or a test limit, other limits are often not marked, values filed in µg/mL are converted to µM
[1] = test system: Escherichia coli
[2] = test system: Bacillus cereus
[3] = test system: Escherichia coli ATCC 25922
[4] = test system: Staphylococcus aureus ATCC 25923
[5] = test system: Saccharomyces cerevisiae
[6] = test system: Pseudomonas aeruginosa ATCC 15692
[7] = test system: Micrococcus luteus
[8] = test system: Staphylococcus aureus
[9] = test system: Acinetobacter baumannii NM35
[10] = test system: Acinetobacter baumannii NM8
[11] = test system: Escherichia coli ATCC 25726
[12] = test system: Candida albicans ATCC 90028
[13] = test system: Pseudomonas syringae pv. syringae DSM 10604
[14] = test system: Xanthomonas vesicatoria DSM 50861
[15] = test system: Pectobacterium carotovorum subsp. carotovorum DSM 30168
[16] = test system: Pseudomonas syringae pv. tomato DC3000
[17] = test system: Clavibacter michiganensis subsp. michiganensis DSM 46294
[18] = test system: Pseudomonas corrugata DSM 7228
[19] = test system: Streptococcus sanguinis ATCC 49295
[20] = test system: Streptococcus mutans UA159
[21] = test system: Streptococcus mutans GS-5
[22] = test system: Streptococcus gordonii ATCC 10558
[23] = test system: Klebsiella pneumoniae
[24] = test system: Escherichia coli JM109
[25] = test system: Bacillus subtilis
[26] = test system: Candida albicans

SMILES: CC[C@H](C)[C@H](NC(=O)[C@H](CC(C)C)NC(=O)[C@H](CCCN=C(N)N)NC(=O)[C@H](CCC(=O)O)NC(=O)[C@H](CC(C)C)NC(=O)[C@@H](NC(=O)[C@@H]1CCCN1C(=O)[C@H](CC(C)C)NC(=O)[C@H](C)NC(=O)[C@H](Cc1ccccc1)NC(=O)[C@H](C)NC(=O)[C@H](C)NC(=O)[C@@H](NC(=O)[C@H](CCCCN)NC(=O)CNC(=O)[C@@H](NC(=O)CNC(=O)[C@@H](NC(=O)[C@H](C)NC(=O)[C@H](C)N)[C@@H](C)O)[C@@H](C)O)[C@@H](C)O)C(C)C)C(=O)O [AATGTGKTAAFALPVLERLI]
MIC [1]: > 128 µM
MIC [2]: ≥ 128 µM

SMILES: CC[C@H](C)[C@H](NC(=O)[C@@H](N)Cc1ccccc1)C(=O)NCC(=O)N[C@@H](C)C(=O)N[C@@H](CC(C)C)C(=O)N[C@@H](CC(C)C)C(=O)N[C@@H](CCCN=C(N)N)C(=O)N1CCC[C@H]1C(=O)N[C@@H](C)C(=O)N[C@@H](CC(C)C)C(=O)N[C@@H](CCCCN)C(=O)N[C@@H](CC(C)C)C(=O)N[C@@H](CC(C)C)C(=O)N[C@@H](C)C(=O)NCC(=O)N[C@@H](CCCCN)C(N)=O [FIGALLRPALKLLAGK]
MIC [3]: 32 µM (≈ 53.8 µg/mL)
MIC [4]: 16 µM (≈ 26.9 µg/mL)
MIC [5]: ≥ 128 µM
MIC [6]: ≥ 256 µM
MIC [7]: 4 µM (≈ 6.72 µg/mL)

SMILES: CC(C)C[C@H](NC(=O)[C@@H](N)Cc1ccccc1)C(=O)NCC(=O)N[C@@H](CCCCN)C(=O)N[C@H](C(=O)N[C@@H](Cc1ccccc1)C(=O)N[C@@H](CCCCN)C(=O)N[C@@H](CCCCN)C(=O)N[C@H](C(=O)N[C@@H](CO)C(=O)N[C@@H](CCCCN)C(=O)N[C@H](C(=O)N[C@@H](Cc1ccccc1)C(=O)N1CCC[C@H]1C(=O)N[C@@H](C)C(=O)N[C@H](C(=O)N[C@@H](Cc1ccccc1)C(=O)NCC(=O)N[C@@H](CCCCN)C(=O)N[C@H](C(=O)O)C(C)C)C(C)C)C(C)C)C(C)C)C(C)C [FLGKVFKKVSKVFPAVFGKV]
MIC [8]: > 57.5 µM
MIC [1]: 14.4 µM (≈ 32 µg/mL)
MIC [2]: ≥ 57.5 µM

SMILES: CC[C@H](C)[C@H](NC(=O)CNC(=O)[C@H](CCCCN)NC(=O)[C@@H](NC(=O)[C@H](CC(C)C)NC(=O)[C@H](CO)NC(=O)CNC(=O)[C@H](CC(C)C)NC(=O)CNC(=O)[C@H](CCCCN)NC(=O)[C@H](CCCCN)NC(=O)[C@H](Cc1ccccc1)NC(=O)[C@@H](NC(=O)[C@H](CCCCN)NC(=O)[C@H](CCCCN)NC(=O)[C@H](CC(C)C)NC(=O)CN)[C@@H](C)CC)C(C)C)C(=O)N[C@@H](C)C(=O)N[C@@H](C)C(=O)N[C@@H](Cc1cnc[nH]1)C(=O)N[C@H](C(=O)N[C@@H](C)C(=O)N[C@@H](CO)C(N)=O)C(C)C [GLKKIFKKGLGSLVKGIAAHVAS]
MIC [9]: 2.5 µM (≈ 5.8 µg/mL)
MIC [4]: 250 µM (≈ 580 µg/mL)
MIC [10]: 5 µM (≈ 11.6 µg/mL)
MIC [11]: 10 µM (≈ 23.2 µg/mL)
MIC [12]: 10 µM (≈ 23.2 µg/mL)

SMILES: CC(C)C[C@H](NC(=O)[C@H](C)NC(=O)[C@H](CCCCN)NC(=O)[C@H](CCCCN)NC(=O)[C@H](C)NC(=O)[C@H](Cc1ccccc1)NC(=O)[C@H](CCCN=C(N)N)NC(=O)[C@@H](N)CC(C)C)C(=O)N[C@@H](CCCCN)C(=O)N[C@@H](CCCCN)C(=O)N[C@@H](CC(C)C)C(=O)N[C@@H](Cc1ccccc1)C(N)=O [LRFAKKALKKLF]
MIC [13]: 0.171 µM (≈ 0.25 µg/mL)
MIC [14]: 1.71 µM (≈ 2.5 µg/mL)
MIC [15]: 6.84 µM (≈ 9.99 µg/mL)
MIC [16]: 0.171 µM (≈ 0.25 µg/mL)
MIC [17]: 1.71 µM (≈ 2.5 µg/mL)
MIC [18]: 0.684 µM (≈ 0.999 µg/mL)

Other lines, results leading:

MIC [19]: ≥ 145 µM
MIC [20]: ≥ 145 µM
MIC [21]: ≥ 145 µM
MIC [22]: ≥ 145 µM
SMILES: CC(C)C[C@H](NC(=O)[C@H](CCCN=C(N)N)NC(=O)[C@H](Cc1ccccc1)NC(=O)[C@H](Cc1ccccc1)NC(=O)[C@@H](NC(=O)[C@H](CO)NC(=O)[C@@H](N)CC(C)C)[C@@H](C)O)C(=O)N[C@@H](Cc1ccccc1)C(=O)N[C@@H](CC(N)=O)C(=O)N[C@@H](CCCN=C(N)N)C(=O)N[C@@H](CO)C(=O)N[C@@H](Cc1ccccc1)C(=O)N[C@H](C(=O)N[C@@H](CCC(N)=O)C(=O)O)[C@@H](C)O [LSTFFRLFNRSFTQ]

MIC [1]: > 122 µM
MIC [2]: ≥ 122 µM
SMILES: CC[C@H](C)[C@H](NC(=O)[C@H](Cc1ccccc1)NC(=O)[C@H](CCCN=C(N)N)NC(=O)[C@H](CO)NC(=O)[C@@H](NC(=O)[C@H](C)NC(=O)[C@H](C)NC(=O)[C@H](CCCCN)NC(=O)[C@@H](NC(=O)[C@H](CS)NC(=O)[C@@H](NC(=O)[C@@H]1CCCN1C(=O)[C@H](CO)NC(=O)[C@H](Cc1ccc(O)cc1)NC(=O)[C@@H](N)CC(C)C)[C@@H](C)O)C(C)C)C(C)C)C(=O)NCC(=O)N[C@@H](CCCCN)C(=O)N[C@H](C(=O)N[C@@H](CO)C(=O)N[C@@H](C)C(=O)O)C(C)C [LYSPTCVKAAVSRFIGKVSA]

MIC [23]: 80 µM (≈ 256 µg/mL)
MIC [24]: 28.3 µM (≈ 90.7 µg/mL)
MIC [25]: 10 µM (≈ 32.1 µg/mL)
MIC [26]: 50 µM (≈ 160 µg/mL)
MIC [5]: 28.3 µM (≈ 90.7 µg/mL)
SMILES: CC[C@H](C)[C@H](NC(=O)[C@H](CCCCN)NC(=O)[C@H](CCCCN)NC(=O)[C@H](Cc1ccccc1)NC(=O)[C@@H](NC(=O)[C@H](CCCCN)NC(=O)[C@H](Cc1c[nH]c2ccccc12)NC(=O)[C@@H](N)CCCN=C(N)N)[C@@H](C)CC)C(=O)N[C@@H](CCC(=O)O)C(=O)N[C@@H](CCCCN)C(=O)N[C@@H](CCSC)C(=O)NCC(=O)NCC(=O)N[C@@H](CO)C(=O)N[C@@H](Cc1ccc(O)cc1)C(=O)N[C@@H](CS)C(=O)N[C@@H](CC(N)=O)C(=O)N[C@@H](CCCN=C(N)N)C(=O)N[C@@H](CCCN=C(N)N)C(=O)N[C@H](C(=O)NCC(=O)N[C@@H](CCCCN)C(=O)N[C@@H](CS)C(=O)N[C@@H](CCC(N)=O)C(=O)N[C@@H](CCCN=C(N)N)C(=O)N[C@@H](CCSC)C(=O)O)[C@@H](C)O [RWKIFKKIEKMGGSYCNRRTGKCQRM]

MIC [19]: ≥ 33.1 µM
MIC [20]: 3.55 µM (≈ 10.7 µg/mL)
MIC [21]: 4.43 µM (≈ 13.3 µg/mL)
MIC [22]: 16.6 µM (≈ 49.8 µg/mL)
SMILES: CC(C)C[C@H](NC(=O)[C@H](CCCN=C(N)N)NC(=O)[C@H](Cc1ccccc1)NC(=O)[C@H](Cc1ccccc1)NC(=O)[C@@H](NC(=O)[C@@H](N)CO)[C@@H](C)O)C(=O)N[C@@H](Cc1ccccc1)C(=O)N[C@@H](CC(N)=O)C(=O)N[C@@H](CCCN=C(N)N)C(=O)N[C@@H](CO)C(=O)N[C@@H](Cc1ccccc1)C(=O)N[C@H](C(=O)N[C@@H](CCC(N)=O)C(=O)NCC(=O)N[C@@H](CCCN=C(N)N)C(=O)N[C@@H](CCCN=C(N)N)C(=O)N[C@@H](CCCN=C(N)N)C(=O)N[C@@H](CCCN=C(N)N)C(=O)N[C@@H](CO)C(=O)N[C@H](C(=O)N[C@@H](CCC(N)=O)C(=O)N[C@@H](Cc1c[nH]c2ccccc12)C(=O)N[C@@H](CS)C(=O)N[C@@H](C)C(=O)O)C(C)C)[C@@H](C)O [STFFRLFNRSFTQGRRRRSVQWCA]

MIC [19]: ≥ 155 µM
MIC [20]: ≥ 155 µM
MIC [21]: ≥ 155 µM
MIC [22]: ≥ 155 µM
SMILES: CC(C)C[C@H](NC(=O)[C@H](CCCN=C(N)N)NC(=O)[C@H](Cc1ccccc1)NC(=O)[C@H](Cc1ccccc1)NC(=O)[C@@H](NC(=O)[C@@H](N)CO)[C@@H](C)O)C(=O)N[C@@H](Cc1ccccc1)C(=O)N[C@@H](CC(N)=O)C(=O)N[C@@H](CCCN=C(N)N)C(=O)N[C@@H](CO)C(=O)N[C@@H](Cc1ccccc1)C(=O)N[C@H](C(=O)N[C@@H](CCC(N)=O)C(=O)O)[C@@H](C)O [STFFRLFNRSFTQ]

MIC [19]: ≥ 40.5 µM
MIC [20]: 4.34 µM (≈ 10.7 µg/mL)
MIC [21]: 5.06 µM (≈ 12.4 µg/mL)
MIC [22]: 20.3 µM (≈ 49.8 µg/mL)
SMILES: CC(C)C[C@H](NC(=O)[C@H](CCCN=C(N)N)NC(=O)[C@H](Cc1ccccc1)NC(=O)[C@H](Cc1ccccc1)NC(=O)[C@@H](N)[C@@H](C)O)C(=O)N[C@@H](Cc1ccccc1)C(=O)N[C@@H](CC(N)=O)C(=O)N[C@@H](CCCN=C(N)N)C(=O)NCC(=O)N[C@@H](CCCN=C(N)N)C(=O)N[C@@H](CCCN=C(N)N)C(=O)N[C@@H](CCCN=C(N)N)C(=O)N[C@@H](CCCN=C(N)N)C(=O)N[C@@H](CO)C(=O)N[C@H](C(=O)N[C@@H](CCC(N)=O)C(=O)N[C@@H](Cc1c[nH]c2ccccc12)C(=O)N[C@@H](CS)C(=O)N[C@@H](C)C(=O)O)C(C)C [TFFRLFNRGRRRRSVQWCA]
